Reference: ChEMBL document CHEMBL5291721, “A preclinical secondary pharmacology resource illuminates target-adverse drug reaction associations of marketed drugs” (Nat Commun, 2023)

Legend:
[1] = molecular target: Cannabinoid receptor 1 (Homo sapiens, UniProt P21554); assay type: functional
[2] = molecular target: T1, Estrogen receptor (Homo sapiens, UniProt P03372); assay type: functional
T1 sequence (P03372 whole entry): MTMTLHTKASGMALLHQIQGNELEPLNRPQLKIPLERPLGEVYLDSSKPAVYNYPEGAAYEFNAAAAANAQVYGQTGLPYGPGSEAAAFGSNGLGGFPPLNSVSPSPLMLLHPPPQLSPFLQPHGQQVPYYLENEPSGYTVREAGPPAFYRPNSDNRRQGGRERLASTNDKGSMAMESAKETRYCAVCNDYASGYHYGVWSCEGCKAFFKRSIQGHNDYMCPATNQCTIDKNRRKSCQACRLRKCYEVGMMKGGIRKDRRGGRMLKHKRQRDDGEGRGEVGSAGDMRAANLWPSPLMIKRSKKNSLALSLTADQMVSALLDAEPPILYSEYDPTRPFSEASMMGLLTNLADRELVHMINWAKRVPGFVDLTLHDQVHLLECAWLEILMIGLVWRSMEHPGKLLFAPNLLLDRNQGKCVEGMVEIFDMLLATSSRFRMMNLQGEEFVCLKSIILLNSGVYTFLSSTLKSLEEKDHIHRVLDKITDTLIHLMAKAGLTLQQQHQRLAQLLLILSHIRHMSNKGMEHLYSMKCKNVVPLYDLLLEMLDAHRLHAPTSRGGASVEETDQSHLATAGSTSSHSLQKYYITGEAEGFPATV

[3] = molecular target: Gamma-aminobutyric acid type B receptor subunit 1 (Homo sapiens, UniProt Q9UBS5)
Sequence of Gamma-aminobutyric acid type B receptor subunit 1 (Q9UBS5 whole entry): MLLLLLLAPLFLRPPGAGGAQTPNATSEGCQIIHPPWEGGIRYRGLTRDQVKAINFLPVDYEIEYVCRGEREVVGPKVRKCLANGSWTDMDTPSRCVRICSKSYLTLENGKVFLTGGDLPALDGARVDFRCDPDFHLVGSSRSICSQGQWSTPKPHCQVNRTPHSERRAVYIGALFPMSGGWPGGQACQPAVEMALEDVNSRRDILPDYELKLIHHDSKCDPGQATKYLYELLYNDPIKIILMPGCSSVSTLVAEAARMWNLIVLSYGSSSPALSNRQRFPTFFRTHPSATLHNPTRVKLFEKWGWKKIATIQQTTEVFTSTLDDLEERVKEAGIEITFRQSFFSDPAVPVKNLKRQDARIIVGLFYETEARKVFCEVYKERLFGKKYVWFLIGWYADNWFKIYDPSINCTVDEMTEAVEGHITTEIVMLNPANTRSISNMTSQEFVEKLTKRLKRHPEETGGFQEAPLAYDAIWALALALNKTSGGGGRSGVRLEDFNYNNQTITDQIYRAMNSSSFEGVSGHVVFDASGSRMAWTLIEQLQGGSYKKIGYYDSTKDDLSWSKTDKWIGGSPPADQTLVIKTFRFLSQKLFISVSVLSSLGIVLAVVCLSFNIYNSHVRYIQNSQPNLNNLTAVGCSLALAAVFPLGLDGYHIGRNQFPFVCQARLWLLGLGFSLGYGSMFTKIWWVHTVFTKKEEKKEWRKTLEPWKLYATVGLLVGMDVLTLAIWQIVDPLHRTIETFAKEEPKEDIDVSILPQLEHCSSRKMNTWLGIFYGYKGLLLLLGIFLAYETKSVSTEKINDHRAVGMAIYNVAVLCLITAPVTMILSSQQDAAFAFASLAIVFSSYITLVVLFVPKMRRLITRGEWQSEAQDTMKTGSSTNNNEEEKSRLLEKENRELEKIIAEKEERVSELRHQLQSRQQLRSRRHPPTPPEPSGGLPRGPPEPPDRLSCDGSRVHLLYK

[4] = molecular target: 5-hydroxytryptamine receptor 6 (Homo sapiens, UniProt P50406)
Sequence of 5-hydroxytryptamine receptor 6 (P50406 whole entry): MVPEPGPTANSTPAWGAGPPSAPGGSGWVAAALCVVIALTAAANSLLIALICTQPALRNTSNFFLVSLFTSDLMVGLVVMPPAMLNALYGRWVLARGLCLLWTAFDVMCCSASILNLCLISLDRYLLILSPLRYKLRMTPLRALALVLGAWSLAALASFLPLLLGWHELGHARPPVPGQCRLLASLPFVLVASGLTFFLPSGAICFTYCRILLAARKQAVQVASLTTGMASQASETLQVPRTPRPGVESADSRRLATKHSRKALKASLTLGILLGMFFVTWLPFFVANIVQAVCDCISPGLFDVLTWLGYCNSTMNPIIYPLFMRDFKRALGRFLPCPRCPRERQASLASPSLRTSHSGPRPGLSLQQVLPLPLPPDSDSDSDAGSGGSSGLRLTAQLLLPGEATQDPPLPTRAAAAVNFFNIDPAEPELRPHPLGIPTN

[5] = molecular target: 5-hydroxytryptamine receptor 7 (Homo sapiens, UniProt P34969)
Sequence of 5-hydroxytryptamine receptor 7 (P34969 whole entry): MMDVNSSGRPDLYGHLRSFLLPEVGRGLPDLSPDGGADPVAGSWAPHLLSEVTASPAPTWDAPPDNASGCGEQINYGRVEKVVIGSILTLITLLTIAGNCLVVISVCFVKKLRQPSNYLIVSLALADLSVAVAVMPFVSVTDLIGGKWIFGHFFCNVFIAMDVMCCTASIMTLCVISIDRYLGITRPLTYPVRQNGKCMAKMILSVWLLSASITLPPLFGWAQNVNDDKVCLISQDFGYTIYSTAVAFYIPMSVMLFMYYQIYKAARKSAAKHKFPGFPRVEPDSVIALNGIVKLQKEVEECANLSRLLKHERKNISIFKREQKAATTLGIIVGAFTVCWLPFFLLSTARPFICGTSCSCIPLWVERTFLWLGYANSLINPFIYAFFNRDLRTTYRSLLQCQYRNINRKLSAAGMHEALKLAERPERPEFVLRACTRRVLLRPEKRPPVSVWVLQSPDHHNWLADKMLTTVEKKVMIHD

[6] = molecular target: T2, Thromboxane A2 receptor (Homo sapiens, UniProt P21731); assay type: functional
T2 sequence (P21731 whole entry): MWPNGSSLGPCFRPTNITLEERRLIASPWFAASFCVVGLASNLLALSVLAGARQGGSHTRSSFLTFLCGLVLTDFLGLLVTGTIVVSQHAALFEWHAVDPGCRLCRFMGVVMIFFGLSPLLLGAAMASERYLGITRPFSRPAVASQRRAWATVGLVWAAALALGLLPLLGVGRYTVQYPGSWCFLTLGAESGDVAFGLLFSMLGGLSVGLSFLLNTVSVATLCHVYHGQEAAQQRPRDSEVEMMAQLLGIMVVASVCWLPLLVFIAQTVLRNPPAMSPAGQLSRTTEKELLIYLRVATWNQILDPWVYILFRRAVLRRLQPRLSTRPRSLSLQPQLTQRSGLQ

[7] = molecular target: Acetylcholinesterase (Homo sapiens, UniProt P22303); assay type: functional
Sequence of Acetylcholinesterase (P22303 whole entry): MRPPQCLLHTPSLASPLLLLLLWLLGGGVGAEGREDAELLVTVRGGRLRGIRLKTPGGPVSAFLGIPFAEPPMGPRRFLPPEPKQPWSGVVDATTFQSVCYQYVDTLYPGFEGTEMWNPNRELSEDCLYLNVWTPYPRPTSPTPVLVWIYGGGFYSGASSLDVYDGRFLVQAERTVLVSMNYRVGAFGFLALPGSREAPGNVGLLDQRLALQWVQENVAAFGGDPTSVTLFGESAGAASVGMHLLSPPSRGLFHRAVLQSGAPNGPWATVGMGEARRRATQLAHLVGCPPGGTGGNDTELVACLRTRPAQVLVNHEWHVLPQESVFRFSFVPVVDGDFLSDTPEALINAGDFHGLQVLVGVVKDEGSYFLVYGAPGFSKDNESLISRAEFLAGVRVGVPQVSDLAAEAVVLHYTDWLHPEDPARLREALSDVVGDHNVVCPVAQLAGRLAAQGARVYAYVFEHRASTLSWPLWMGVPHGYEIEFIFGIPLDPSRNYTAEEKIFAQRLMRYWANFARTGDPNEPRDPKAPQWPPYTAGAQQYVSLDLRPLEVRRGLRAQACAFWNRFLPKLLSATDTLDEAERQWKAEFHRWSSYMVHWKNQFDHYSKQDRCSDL

[8] = molecular target: T2, Thromboxane A2 receptor; assay type: functional, cell-based
Further: assay procedure not described here.

Sequence of Cannabinoid receptor 1 (P21554 whole entry): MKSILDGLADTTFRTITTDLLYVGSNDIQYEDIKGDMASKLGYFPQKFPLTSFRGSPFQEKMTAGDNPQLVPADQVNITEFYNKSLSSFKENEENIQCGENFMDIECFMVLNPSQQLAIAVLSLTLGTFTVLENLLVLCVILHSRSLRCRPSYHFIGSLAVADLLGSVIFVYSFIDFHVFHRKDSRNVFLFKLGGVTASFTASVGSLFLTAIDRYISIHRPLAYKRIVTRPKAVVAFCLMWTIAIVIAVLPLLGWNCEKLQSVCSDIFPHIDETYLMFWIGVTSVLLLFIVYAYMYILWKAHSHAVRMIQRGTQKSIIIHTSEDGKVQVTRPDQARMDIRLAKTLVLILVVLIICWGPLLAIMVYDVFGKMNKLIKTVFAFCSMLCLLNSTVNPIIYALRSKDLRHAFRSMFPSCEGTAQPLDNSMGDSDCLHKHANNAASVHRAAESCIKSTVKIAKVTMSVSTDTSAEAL

Cn1nnc2c(C(N)=O)ncn2c1=O [TEMOZOLOMIDE]
AC50 [1]: > 10 µM
AC50 [2]: > 30 µM
AC50 [3]: > 10 µM
AC50 [4]: > 10 µM
AC50 [5]: > 10 µM
AC50 [6]: > 30 µM
AC50 [7]: > 30 µM
AC50 [8]: > 30 µM
